A short description of the data set: Biodistribution of the 99mTc(N) heterocomplexes in rats (organ uptake, heart accumulation, heart/lung and heart/liver ratios). Type of data set: in vivo, female Sprague-Dawley rats. The conditions noted are these: rats. In a few lines:
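Female Sprague-Dawley rats (200–250 g, n=3), ketamine/xylazine anaesthesia, got 300–370 kBq of each purified heterocomplex in pH 7.4 phosphate buffer (10% ethanol) via the jugular vein. They were killed at several post-injection times. Heart blood and washed, weighed organs were gamma-counted, taking whole blood as 6.5% of body weight.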

Regarding `CCOCCN(CCOCC)C1=[S][99Tc+]2(#[N])([S]1)[P](CCCOC)(CCCOC)CCN(CCOC)CC[P]2(CCCOC)CCCOC` [[^99m−Tc(N) (PNP3) (DBODC)^+]], the Heart accumulation stood at 3.57 ± 0.14 % ID/g (0 min); 3.42 ± 0.19 % ID/g (2 min); 3.65 ± 0.56 % ID/g (10 min); 3.32 ± 0.18 % ID/g (20 min); 3.27 ± 0.36 % ID/g (30 min); 3.27 ± 0.62 % ID/g (60 min). The Heart accumulation (120 min) stood at 3.00 ± 0.42 % ID/g. Besides, the “Heart/liver ratio in biodistribution” value runs as follows: (0 min) 2.45; (2 min) 1.99; (10 min) 2.55; (20 min) 3.82; (30 min) 7.79; (60 min) 20.44. Also, under “120 min”, the “Heart/liver ratio in biodistribution” value was found to be 25.01. For the same molecule, the “Heart/lung ratio in biodistribution” value is, setting by setting: (0 min) 2.32; (2 min) 3.39; (10 min) 4.74; (20 min) 3.95; (30 min) 4.74; (60 min) 9.60. Moreover, where the note is “120 min”, the “Heart/lung ratio in biodistribution” value is given as 11.10.
As for `COCCC[P]1(CCCOC)CCN(CCOC)CC[P](CCCOC)(CCCOC)[99Tc+]12(#[N])[S]C(N(CCOC)CCOC)=[S]2` [[^99m−Tc(N) (PNP3) (DPODC)^+]], the Heart accumulation reads like this: (0 min) 3.08 ± 0.31 % ID/g; (2 min) 2.06 ± 0.13 % ID/g; (10 min) 2.37 ± 0.33 % ID/g; (20 min) 2.49 ± 0.31 % ID/g; (30 min) 2.57 ± 0.06 % ID/g; (60 min) 2.26 ± 0.06 % ID/g. In addition, the Heart accumulation (120 min) was found to be 2.45 ± 0.41 % ID/g. Further, the “Heart/liver ratio in biodistribution” value runs as follows: (0 min) 0.89; (2 min) 0.56; (10 min) 0.68; (20 min) 1.34; (30 min) 1.98; (60 min) 5.38. The “Heart/liver ratio in biodistribution” value (120 min) came out at 15.31. Also, the “Heart/lung ratio in biodistribution” value by setting is: (0 min) 2.12; (2 min) 3.17; (10 min) 3.54; (20 min) 5.79; (30 min) 6.27; (60 min) 8.37. In addition, the “Heart/lung ratio in biodistribution” value (120 min) was determined as 12.25.
As for `CCOCCN1CC[P](CCCOC)(CCCOC)[99Tc+]2(#[N])([S]C(N(CCOCC)CCOCC)=[S]2)[P](CCCOC)(CCCOC)CC1` [[^99m−Tc(N) (PNP5) (DBODC)^+]], the Heart accumulation (0 min) stood at 5.01 ± 0.16 % ID/g; the Heart accumulation (2 min) is on record as 3.94 ± 0.32 % ID/g; the Heart accumulation (10 min) turned out to be 3.69 ± 0.29 % ID/g; the Heart accumulation (20 min) is listed as 3.63 ± 0.46 % ID/g; the Heart accumulation (30 min) turned out to be 3.73 ± 0.48 % ID/g; the Heart accumulation (60 min) was 3.76 ± 0.39 % ID/g. Further, for the setting “120 min”, the Heart accumulation came to 3.31 ± 0.06 % ID/g.
For `CCOCCN1CC[P](CCCOC)(CCCOC)[99Tc+]2(#[N])([S]C(N(CCOCC)C(C)C)=[S]2)[P](CCCOC)(CCCOC)CC1` [[^99m−Tc(N) (PNP5) (ISOET)^+]], the Heart accumulation (0 min) amounted to 3.35 ± 0.51 % ID/g; the Heart accumulation (2 min) amounted to 2.33 ± 0.17 % ID/g; the Heart accumulation (10 min) is 2.91 ± 0.36 % ID/g; the Heart accumulation (20 min) turned out to be 2.86 ± 0.07 % ID/g; the Heart accumulation (30 min) was determined as 2.47 ± 0.49 % ID/g; the Heart accumulation (60 min) came out at 2.74 ± 0.19 % ID/g. Also, the Heart accumulation (120 min) is 2.44 ± 0.05 % ID/g.
As to `CCOCCC[P]1(CCCOCC)CCN(CCOCC)CC[P](CCCOCC)(CCCOCC)[99Tc+]12(#[N])[S]C(N(CCOCC)CCOCC)=[S]2` [[^99m−Tc(N) (PNP6) (DBODC)^+]], the Heart accumulation reads like this: (0 min) 2.26 ± 0.82 % ID/g; (2 min) 1.24 ± 0.14 % ID/g; (10 min) 1.39 ± 0.30 % ID/g; (20 min) 1.18 ± 0.18 % ID/g; (30 min) 1.05 ± 0.19 % ID/g; (60 min) 1.10 ± 0.11 % ID/g. Where the note is “120 min”, the Heart accumulation came out at 1.29 ± 0.16 % ID/g.

The record behind these values is patent US7445765B2, “Radiopharmaceutical for diagnostic imaging containing a technetium-99m nitride heterocomplex” (Nihon Medi-Physics Co., Ltd., priority 2000, dated 2008).
